Measurements from patent US20080188503A1, “New Compounds II” (AstraZenaca AB, priority 2006, published 2008).

Biological target: T1, recombinant human GSK3β (Homo sapiens, UniProt P49841)
T1 construct: purchased Dundee University, UK
Experiment: GSK3β Scintillation Proximity Assay (ATP competition)
Format: biochemical
Details: recombinant human GSK3β SPA; 1 μM ATP, 1 μM biotinylated peptide substrate; Ki calculated with Km of ATP 20 μM
Description: Determination of ATP Competition in Scintillation Proximity GSK3β Assay.
GSK3β Scintillation Proximity Assay.
The competition experiments were carried out in duplicate with 10 different concentrations of the inhibitors in clear-bottom microtiter plates (Wallac, Finland). A biotinylated peptide substrate, Biotin-Ala-Ala-Glu-Glu-Leu-Asp-Ser-Arg-Ala-Gly-Ser(PO3H2)-Pro-Gln-Leu (AstraZeneca, Lund), was added at a final concentration of 1 μM in an assay buffer containing 1 mU recombinant human GSK3β (Dundee University, UK), 12 mM morpholinepropanesulfonic acid (MOPS), pH 7.0, 0.3 mM EDTA, 0.01% β-mercaptoethanol, 0.004% Brij 35 (a […] detergent), 0.5% glycerol and 0.5 μg BSA/25 μl. The reaction was initiated by the addition of 0.04 μCi [γ-^33P]ATP (Amersham, UK) and unlabelled ATP at a final concentration of 1 μM and assay volume of 25 μl. After incubation for 20 minutes at room temperature, each reaction was terminated by the addition of 25 μl stop solution containing 5 mM EDTA, 50 μM ATP, 0.1% Triton X-100 and 0.25 mg streptavidin coated Scintillation Proximity Assay (SPA) beads (Amersham, UK). After 6 hours the radioactivity was determined in a liquid scintillation counter (1450 MicroBeta Trilux, Wallac). The inhibition curves were analysed by non-linear regression using GraphPad Prism, USA. The Km value of ATP for GSK3β, used to calculate the inhibition constants (Ki) of the various compounds, was 20 μM.

T1 sequence (P49841 whole entry): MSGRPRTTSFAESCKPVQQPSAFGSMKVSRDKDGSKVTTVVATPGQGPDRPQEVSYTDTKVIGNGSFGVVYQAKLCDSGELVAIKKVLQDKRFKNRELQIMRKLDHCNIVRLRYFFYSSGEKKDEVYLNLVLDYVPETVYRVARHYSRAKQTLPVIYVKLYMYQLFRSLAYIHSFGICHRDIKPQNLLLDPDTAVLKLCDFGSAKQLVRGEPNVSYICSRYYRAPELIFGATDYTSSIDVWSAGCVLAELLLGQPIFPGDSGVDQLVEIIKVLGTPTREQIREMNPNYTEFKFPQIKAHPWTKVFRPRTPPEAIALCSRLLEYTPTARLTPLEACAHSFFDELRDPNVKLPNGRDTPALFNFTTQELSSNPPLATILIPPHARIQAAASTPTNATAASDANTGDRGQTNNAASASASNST

Ki [nM]	SMILES
87	Cc1ncc(-c2nc(NC3CCOCC3)ncc2F)n1C1CCOCC1 [Example 34, 5-Fluoro-4-[2-methyl-1-(tetrahydro-2H-pyran-4-yl)-1H-imidazol-5-yl]-N-(tetrahydro-2H-pyran-4-yl)pyrimidin-2-amine]
120	CC(=O)N1CCC(Nc2ncc(F)c(-c3cnc(C)n3C3CCOCC3)n2)CC1 [Example 35, N-(1-Acetylpiperidin-4-yl)-5-fluoro-4-[2-methyl-1-(tetrahydro-2H-pyran-4-yl)-1H-imidazol-5-yl]pyrimidin-2-amine]
16	Cc1ncc(-c2nc(NC3CCCCC3)ncc2F)n1C1CCOCC1 [Example 36, N-Cyclohexyl-5-fluoro-4-[2-methyl-1-(tetrahydro-2H-pyran-4-yl)-1H-imidazol-5-yl]pyrimidin-2-amine]
140	Cc1ncc(-c2nc(NC3CCN(Cc4ccccc4)CC3)ncc2F)n1C1CCOCC1 [Example 37, N-(1-Benzylpiperidin-4-yl)-5-fluoro-4-[2-methyl-1-(tetrahydro-2H-pyran-4-yl)-1H-imidazol-5-yl]pyrimidin-2-amine]
57	Cc1ncc(-c2nc(NC3CCN(C(=O)c4ccccc4)CC3)ncc2F)n1C1CCOCC1 [Example 38, N-(1-Benzoylpiperidin-4-yl)-5-fluoro-4-[2-methyl-1-(tetrahydro-2H-pyran-4-yl)-1H-imidazol-5-yl]pyrimidin-2-amine]
36	Cc1ncc(-c2nc(NC3CCN(C(=O)Cc4ccccc4)CC3)ncc2F)n1C1CCOCC1 [Example 39, 5-Fluoro-4-[2-methyl-1-(tetrahydro-2H-pyran-4-yl)-1H-imidazol-5-yl]-N-[1-(phenylacetyl)piperidin-4-yl]pyrimidin-2-amine]
31	Cc1ncc(-c2nc(NC3CCN(C(=O)OCc4ccccc4)CC3)ncc2F)n1C1CCOCC1 [Example 40, Benzyl 4-({5-fluoro-4-[2-methyl-1-(tetrahydro-2H-pyran-4-yl)-1H-imidazol-5-yl]pyrimidin-2-yl}amino)piperidine-1-carboxylate]
120	Cc1ncc(-c2nc(NC3CCN(S(C)(=O)=O)CC3)ncc2F)n1C1CCOCC1 [Example 41, 5-Fluoro-N-[1-(methylsulfonyl)piperidin-4-yl]-4-[2-methyl-1-(tetrahydro-2H-pyran-4-yl)-1H-imidazol-5-yl]pyrimidin-2-amine]
91	Cc1ncc(-c2nc(NC3CCN(C(=O)C(F)(F)F)CC3)ncc2F)n1C1CCOCC1 [Example 42, 5-Fluoro-4-[2-methyl-1-(tetrahydro-2H-pyran-4-yl)-1H-imidazol-5-yl]-N-[1-(trifluoroacetyl)piperidin-4-yl]pyrimidin-2-amine]
53	Cc1ncc(-c2nc(NC3CCN(S(=O)(=O)c4ccccc4)CC3)ncc2F)n1C1CCOCC1 [Example 43, 5-Fluoro-4-[2-methyl-1-(tetrahydro-2H-pyran-4-yl)-1H-imidazol-5-yl]-N-[1-(phenylsulfonyl)piperidin-4-yl]pyrimidin-2-amine]
80	Cc1ncc(-c2nc(NC3CCN(S(=O)(=O)Cc4ccccc4)CC3)ncc2F)n1C1CCOCC1 [Example 44, N-[1-(Benzylsulfonyl)piperidin-4-yl]-5-fluoro-4-[2-methyl-1-(tetrahydro-2H-pyran-4-yl)-1H-imidazol-5-yl]pyrimidin-2-amine]
